Here are results for 31 molecules from patent US8058475B2, “Substituted cyclohexylmethyl compounds” (Gruenenthal GmbH, priority 2005, dated 2011).

One may read the Ki as a measure of affinity in units of concentration, obtained from inhibition or displacement. The term inhibition denotes the share of the control response that was lost under treatment.

The target in the test is human μ-opiate receptor (Homo sapiens, UniProt P35372). As to the kind of experiment: Affinity for the human μ-opiate receptor ([3H]-naloxone displacement, SPA, CHO-K1 membrane preparation). It is filed as binding. The conditions noted are these: for Ki: read-out: μ-Opioid receptor, Ki; for inhibition at 1 µM: read-out: μ-Opioid receptor, % inhibition [1 μM].
human μ-opiate receptor, sequence (P35372 whole entry): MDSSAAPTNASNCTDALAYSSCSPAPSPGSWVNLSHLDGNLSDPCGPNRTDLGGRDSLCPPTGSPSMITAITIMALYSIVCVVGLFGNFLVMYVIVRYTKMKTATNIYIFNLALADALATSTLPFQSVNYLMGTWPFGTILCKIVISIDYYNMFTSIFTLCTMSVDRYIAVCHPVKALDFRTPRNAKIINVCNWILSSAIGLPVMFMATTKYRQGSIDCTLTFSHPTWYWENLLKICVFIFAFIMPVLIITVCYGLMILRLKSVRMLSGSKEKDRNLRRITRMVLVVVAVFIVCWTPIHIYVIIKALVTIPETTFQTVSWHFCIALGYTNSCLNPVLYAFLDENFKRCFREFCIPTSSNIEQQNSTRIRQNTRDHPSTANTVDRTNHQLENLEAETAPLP
Setting [1] is: 1 μM test substance, inhibition of specific [3H]-naloxone binding.

Like-named read-outs stand apart in the source and are kept apart here.

`CN(C)C(c1cccc(F)c1)C1CCC(CNC(=O)c2cccs2)CC1` (single isomer, unassigned) [compound 340, thiophene-2-carboxylic acid {4-[dimethylamino-(3-fluoro-phenyl)-methyl]-cyclohexylmethyl}-amide]: the Ki is 55 nM. Besides, the “μ-Opioid receptor, % inhibition [1 μM]” value (1 µM) amounted to 91%.

Turning to `CC(Oc1ccccc1)C(=O)NCC1CCC(C(c2cccc(F)c2)N(C)C)CC1` (single isomer, unassigned) [compound 341, N-{4-[dimethylamino-(3-fluoro-phenyl)-methyl]-cyclohexylmethyl}-2-phenoxy-propionamide], the Ki was 13 nM.

Take `CCC(C)C(=O)NCC1CCC(C(c2cccc(F)c2)N(C)C)CC1` (single isomer, unassigned) [compound 342, N-{4-[dimethylamino-(3-fluoro-phenyl)-methyl]-cyclohexylmethyl}-2-methyl-butyramide]: the inhibition at 1 µM was 90% and the inhibition constant Ki is 28 nM.

In the case of `CN(C)C(c1cccc(F)c1)C1CCC(CNC(=O)Cc2ccccc2)CC1` (single isomer, unassigned) [compound 348, N-{4-[dimethylamino-(3-fluoro-phenyl)-methyl]-cyclohexylmethyl}-2-phenyl-acetamide], the inhibitory constant (Ki) came out at 30 nM. The “μ-Opioid receptor, % inhibition [1 μM]” value (1 µM) turned out to be 89%.

For the molecule `CN(C)C(c1ccccc1)C1CCC(CNC(=O)c2ccc(F)c(F)c2)CC1` (single isomer, unassigned) [compound 357, N-[4-(dimethylamino-phenyl-methyl)-cyclohexylmethyl]-3,4-difluoro-benzamide], the inhibition constant (Ki) was determined as 60 nM. In addition, the “μ-Opioid receptor, % inhibition [1 μM]” value (1 µM) was 86%.

`CN(C)C(c1ccccc1)C1CCC(CNC(=O)c2cccnc2Oc2ccc(Cl)cc2)CC1` (single isomer, unassigned) [compound 360, 2-(4-chloro-phenoxy)-N-[4-(dimethylamino-phenyl-methyl)-cyclohexylmethyl]-nicotinamide]: the inhibition at 1 µM stood at 86% and the Ki turned out to be 35 nM.

For `CN(C)C(c1ccc(Cl)cc1)C1CCC(CNC(=O)c2csc3ccccc23)CC1` (single isomer, unassigned) [compound 372, benzo[b]thiophene-3-carboxylic acid {4-[(4-chloro-phenyl)-dimethylamino-methyl]-cyclohexylmethyl}-amide], the inhibition constant Ki was found to be 33 nM. The “μ-Opioid receptor, % inhibition [1 μM]” value (1 µM) came to 84%.

Turning to `CCC(C)C(=O)NCC1CCC(C(c2cccc(F)c2)N(C)C)CC1` (single isomer, unassigned) [compound 378, N-{4-[dimethylamino-(3-fluoro-phenyl)-methyl]-cyclohexylmethyl}-2-methyl-butyramide], the inhibitory constant (Ki) turned out to be 55 nM. In addition, the “μ-Opioid receptor, % inhibition [1 μM]” value (1 µM) is listed as 83%.

Consider `CN(C)C(c1ccccc1)C1CCC(CNC(=O)c2cccnc2Oc2ccc(Cl)cc2)CC1` (single isomer, unassigned) [compound 383, 2-(4-chloro-phenoxy)-N-[4-(dimethylamino-phenyl-methyl)-cyclohexylmethyl]-nicotinamide], for which the Ki was 86 nM. Moreover, under “1 µM”, the “μ-Opioid receptor, % inhibition [1 μM]” value came out at 83%.

With `Cc1ccc(Oc2ncccc2C(=O)NCC2CCC(C(c3cccs3)N(C)C)CC2)cc1` (single isomer, unassigned) [compound 389, N-[4-(dimethylamino-thiophen-2-yl-methyl)-cyclohexylmethyl]-2-p-tolyloxy-nicotinamide], the inhibition at 1 µM turned out to be 81% and the Ki came out at 58 nM.

With `CN(C)C(c1ccccc1)C1CCC(CCNC(=O)c2cccc(Cl)c2)CC1` (single isomer, unassigned) [compound 397, 3-chloro-N-{2-[4-(dimethylamino-phenyl-methyl)-cyclohexyl]-ethyl}-benzamide], the inhibition at 1 µM was found to be 97% and the Ki is 7.2 nM.

For `CN(C)C(c1ccccc1)C1CCC(CCNC(=O)c2cccc(Cl)c2)CC1` (single isomer, unassigned) [compound 398, 3-chloro-N-{2-[4-(dimethylamino-phenyl-methyl)-cyclohexyl]-ethyl}-benzamide], the Ki was 7.4 nM. Also, the “μ-Opioid receptor, % inhibition [1 μM]” value (1 µM) is listed as 101%.

For the molecule `CN(C)C(c1cccc(F)c1)C1CCC(CCNC(=O)c2cccc(Cl)c2)CC1` (single isomer, unassigned) [compound 400, 3-chloro-N-(2-{4-[dimethylamino-(3-fluoro-phenyl)-methyl]-cyclohexyl}-ethyl)-benzamide], the inhibition at 1 µM came out at 94% and the Ki came to 23 nM.

In the case of `CN(C)C(c1cccc(F)c1)C1CCC(CCNC(=O)c2cccc(Cl)c2)CC1` (single isomer, unassigned) [compound 401, 3-chloro-N-(2-{4-[dimethylamino-(3-fluoro-phenyl)-methyl]-cyclohexyl}-ethyl)-benzamide], the Ki is 11 nM. Besides, the “μ-Opioid receptor, % inhibition [1 μM]” value (1 µM) is reported as 97%.

In the case of `Cc1ccccc1C(=O)NCCC1CCC(C(c2ccccc2)N(C)C)CC1` (single isomer, unassigned) [compound 417, N-{2-[4-(dimethylamino-phenyl-methyl)-cyclohexyl]-ethyl}-2-methyl-benzamide], the inhibition at 1 µM amounted to 91% and the inhibitory constant (Ki) was determined as 31 nM.

In the case of `Cc1ccccc1C(=O)NCCC1CCC(C(c2ccccc2)N(C)C)CC1` (single isomer, unassigned) [compound 418, N-{2-[4-(dimethylamino-phenyl-methyl)-cyclohexyl]-ethyl}-2-methyl-benzamide], the Ki is 43 nM. Also, for the setting “1 µM”, the “μ-Opioid receptor, % inhibition [1 μM]” value was 92%.

Take `CN(C)C(c1ccc(F)cc1)C1CCC(CCNC(=O)c2cccc(Cl)c2)CC1` (single isomer, unassigned) [compound 422, 3-chloro-N-(2-{4-[dimethylamino-(4-fluoro-phenyl)-methyl]-cyclohexyl}-ethyl)-benzamide]: the inhibition at 1 µM came to 83% and the Ki amounted to 35 nM.

`CN(C)C(c1ccc(F)cc1)C1CCC(CCNC(=O)c2cccc(Cl)c2)CC1` (single isomer, unassigned) [compound 423, 3-chloro-N-(2-{4-[dimethylamino-(4-fluoro-phenyl)-methyl]-cyclohexyl}-ethyl)-benzamide]: the “μ-Opioid receptor, % inhibition [1 μM]” value was found to be 83% and the Ki was 15 nM.

Regarding `CN(C)C(c1cccc(F)c1)C1CCC(CCNC(=O)c2cc(F)c(Cl)cc2Cl)CC1` (single isomer, unassigned) [compound 438, 2,4-dichloro-N-(2-{4-[dimethylamino-(3-fluoro-phenyl)-methyl]-cyclohexyl}-ethyl)-5-fluoro-benzamide], the inhibition at 1 µM turned out to be 87% and the inhibitory constant (Ki) is 100 nM.

As for `CN(C)C(c1cccc(F)c1)C1CCC(CCNC(=O)c2cc(F)c(Cl)cc2Cl)CC1` (single isomer, unassigned) [compound 439, 2,4-dichloro-N-(2-{4-[dimethylamino-(3-fluoro-phenyl)-methyl]-cyclohexyl}-ethyl)-5-fluoro-benzamide], the inhibitory constant (Ki) came out at 52 nM. Moreover, the “μ-Opioid receptor, % inhibition [1 μM]” value (1 µM) turned out to be 85%.

Turning to `CN(C)C(c1ccccc1)C1CCC(CCNC(=O)c2cccnc2Sc2ccc(Cl)cc2)CC1` (single isomer, unassigned) [compound 470, 2-(4-chloro-phenylsulfanyl)-N-{2-[4-(dimethylamino-phenyl-methyl)-cyclohexyl]-ethyl}-nicotinamide], the inhibition at 1 µM came to 91% and the Ki is 71 nM.

On to `CN(C)C(c1ccccc1)C1CCC(CCNC(=O)c2cccnc2Sc2ccc(Cl)cc2)CC1` (single isomer, unassigned) [compound 471, 2-(4-chloro-phenylsulfanyl)-N-{2-[4-(dimethylamino-phenyl-methyl)-cyclohexyl]-ethyl}-nicotinamide], for which the Ki was found to be 87 nM. For the same molecule, the “μ-Opioid receptor, % inhibition [1 μM]” value (1 µM) was determined as 82%.

With `Cc1cc(C2(O)CCC(C(c3ccccc3)N(C)C)CC2)ccc1F` (stereo not shown) [compound 151, 4-(dimethylamino-phenyl-methyl)-1-(4-fluoro-3-methyl-phenyl)-cyclohexanol], the inhibition at 1 µM under setting [1] came to 71%.

In the case of `CN(C)C(c1cccc(F)c1)C1CCC(O)(Cc2ccccc2)CC1` (stereo not shown) [compound 152, 1-benzyl-4-[dimethylamino-(3-fluoro-phenyl)-methyl]-cyclohexanol], under setting [1], the inhibition at 1 µM turned out to be 63%.

Consider `CN(C)C(c1cccc(F)c1)C1CCC(O)(CCc2ccccc2)CC1` (stereo not shown) [compound 153, 4-[dimethylamino-(3-fluoro-phenyl)-methyl]-1-phenethyl-cyclohexanol], for which the inhibition at 1 µM under setting [1] came to 87%.

In the case of `CCCCCC1(O)CCC(C(c2cccc(F)c2)N(C)C)CC1` (stereo not shown) [compound 154, 4-[dimethylamino-(3-fluoro-phenyl)-methyl]-1-pentyl-cyclohexanol], under setting [1], the inhibition at 1 µM was found to be 50%.

Take `CN(C)C(c1cccc(F)c1)C1CCC(O)(c2cc(Cl)cc(Cl)c2)CC1` (stereo not shown) [compound 155, 1-(3,5-dichloro-phenyl)-4-[dimethylamino-(3-fluoro-phenyl)-methyl]-cyclohexanol]: the inhibition at 1 µM under setting [1] was 77%.

Take `COc1cccc(CC2(O)CCC(C(c3cccc(F)c3)N(C)C)CC2)c1` (stereo not shown) [compound 156, 4-[dimethylamino-(3-fluoro-phenyl)-methyl]-1-(3-methoxy-benzyl)-cyclohexanol]: the inhibition at 1 µM under setting [1] is 73%.

For the molecule `CN(C)C(c1cccc(F)c1)C1CCC(O)(c2ccc(Cl)c(C(F)(F)F)c2)CC1` (stereo not shown) [compound 157, 1-(4-chloro-3-trifluoromethyl-phenyl)-4-[dimethylamino-(3-fluoro-phenyl)-methyl]-cyclohexanol], the inhibition at 1 µM under setting [1] came to 72%.

With `CN(C)C(c1ccc(Cl)cc1)C1CCC(O)(c2ccccc2)CC1` (stereo not shown) [compound 158, 4-[(4-chloro-phenyl)-dimethylamino-methyl]-1-phenyl-cyclohexanol], the inhibition at 1 µM under setting [1] amounted to 58%.

Turning to `CN(C)C(c1ccc(Cl)cc1)C1CCC(O)(Cc2ccccc2)CC1` (stereo not shown) [compound 159, 1-benzyl-4-[(4-chloro-phenyl)-dimethylamino-methyl]-cyclohexanol], under setting [1], the inhibition at 1 µM was found to be 83%.
